Values joined by “and” are separate entries in the source; they are usually repeats but may differ in a detail not shown here. Equal entries are not always repeated. Where two headings read alike, the source gives them in different places.
What was measured:
GSK-3α = biological target: T1, GSK-3α (Homo sapiens, UniProt P49840); test: CETSA in HL-60 cell extract, immunoblot; format: binding; conditions: for ΔTm at 20 µM / Tm (GSK-3α): 20 µM inhibitor; for Tm difference vs DMSO, same protein: inhibitor minus DMSO; for Tm (fitted melting curve): in °C; for Tm: GSK-3α, cell extract
T1 construct: parallel detection of MAPK14, MAPKAPK2, MAPKAPK3, and GSK-3α; endogenous in cells; host or cells: HL-60 (ATCC CCL-240), living cells or cell extract
Procedure: (§1) For the differentiation of primary and secondary binding effects, CETSA experiments using cell extracts instead of living cells (cell extract test) are proposed in the literature. Therefore, we performed CETSA assays in HL-60 cell extracts under the same conditions as for living cells (Figure 1, Table 1, Supplementary Table S6).
(§2) HL-60 cells were expanded as described above for CETSA and TPP-TR to about 1.25 million cells per ml. 50 mL of the cell suspension, respectively, was transferred into 50 mL conical tubes. After centrifugation (300 rcf, 3 min, r.t.) and removing all of the supernating culture medium, the cells were washed twice with 25 mL PBS (r.t.) by gently resuspending the cells, followed by centrifugation (300 rcf, 3 min, r.t.) and the removal of the supernatant. The cells were transferred into pre-weighed 2 mL LoBind Eppendorf tubes using 1 mL PBS (r.t.), respectively, for resuspending. After centrifugation (300 rcf, 3 min, r.t.) and removing as much as possible of the supernatants, the cell wet weights were determined. The cells were stored at −80 °C after shock-freezing in liquid nitrogen.
(§3) Cell extracts were obtained by four freeze/thaw cycles as described above for CETSA and TPP-TR using 10 µL ice cold PBS supplemented with protease inhibitors per milligram of cell pellet wet weight for the initial resuspension of the pellet, followed by centrifugation (20,000 rcf, 30 min, 4 °C), and the recovery of the supernatant. After determining the protein content, the cell extracts were diluted to 1.8 mg/mL total protein concentration using ice-cold PBS supplemented with protease inhibitors and aliquots of 99 µL in PCR tube strips, and 1.1 mL in LoBind 1.5 mL Eppendorf tubes were shock-frozen in liquid nitrogen and stored at −80 °C or directly processed.
(§4) A fourth aliquot of 1.8 mg/mL HL-60 cell extract was supplemented with 2.2 µL of DMSO. […] After a brief centrifugation using a benchtop centrifuge, the temperature treatment at the ten different temperatures was performed as described in Section 4.1.1.
(§5) Additionally, the preparation of cell extracts containing the fraction of soluble, non-denatured proteins was performed as described in Section 4.1.1. for living cells, but omitting the freeze/thaw steps for cell lysis.
(§6) For each sample set comprising either ten temperature range samples or ten compound concentration range samples, the same volume of the cell extracts containing the fraction of soluble, non-denatured proteins was used for further analysis. This volume was determined using the two lowest temperature samples (36.5 and 41.2 °C) per temperature range sample set so that they contained an average of 5 µg total protein (e.g., 2.78 µL for all temperature range samples of a sample set whose two lowest temperature samples contain an average of 1.8 mg/mL protein). For the compound concentration range experiments, all samples of a set were used for averaging. The calculated volume was respectively transferred into PCR tubes of a tube strip, supplemented with SDS sample buffer (final concentrations: 25 mM dithiothreitol (DTT), 7.5% glycerol, 3% SDS, 37.5 mM Tris/HCl pH 7.0, 0.005% bromophenol blue), incubated for 10 min at r.t. and applied to SDS-PAGE under external cooling in an ice bath (MW marker: PageRuler pre-stained protein ladder (Thermo scientific, Waltham, MA, USA); NuPAGE 4–12% Bis-Tris Gels, 1.0 mm, Midi Protein Gel, 26-well (Thermo fisher scientific); ice cold MOPS SDS running buffer (50 mM MOPS, 50 mM Tris base, 0.1% SDS, 0.003% EDTA (free acid)); 50 V for 15 min, then 200 V for about 1.5 h, i.e., the rest of the run).

MAPKAPK2 = MAPKAPK2 (Homo sapiens, UniProt P49137); test: CETSA in HL-60 cell extract, immunoblot; format: binding; conditions: for Tm difference vs DMSO, same protein: MAPKAPK2, inhibitor minus DMSO
Procedure: as §1, §2, §3, §4, §5, §6

HN1L = biological target: T2, HN1L (Homo sapiens, UniProt Q9H910); test: TPP-CCR in living HL-60 cells; conditions: for Hill slope (HN1L): living HL-60 cells, […] °C, TMT-MS
T2 sequence (Q9H910 1-190): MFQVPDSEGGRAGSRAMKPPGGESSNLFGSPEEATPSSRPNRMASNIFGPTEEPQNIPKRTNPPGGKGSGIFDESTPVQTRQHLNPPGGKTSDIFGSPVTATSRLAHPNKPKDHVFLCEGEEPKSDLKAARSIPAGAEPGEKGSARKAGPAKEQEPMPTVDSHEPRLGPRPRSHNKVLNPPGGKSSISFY

[1] = read-out: ΔTm to DMSO in Cell Extract Compared to Living Cells (GSK-3α)
[2] = CETSA in cell extract (lysate), GSK3a
[3] = HL-60 cell extract, immunoblot, read-out: ΔTm to DMSO (GSK-3α)
[4] = MAPKAPK2, cell extract, immunoblot

T1 sequence (P49840 whole entry): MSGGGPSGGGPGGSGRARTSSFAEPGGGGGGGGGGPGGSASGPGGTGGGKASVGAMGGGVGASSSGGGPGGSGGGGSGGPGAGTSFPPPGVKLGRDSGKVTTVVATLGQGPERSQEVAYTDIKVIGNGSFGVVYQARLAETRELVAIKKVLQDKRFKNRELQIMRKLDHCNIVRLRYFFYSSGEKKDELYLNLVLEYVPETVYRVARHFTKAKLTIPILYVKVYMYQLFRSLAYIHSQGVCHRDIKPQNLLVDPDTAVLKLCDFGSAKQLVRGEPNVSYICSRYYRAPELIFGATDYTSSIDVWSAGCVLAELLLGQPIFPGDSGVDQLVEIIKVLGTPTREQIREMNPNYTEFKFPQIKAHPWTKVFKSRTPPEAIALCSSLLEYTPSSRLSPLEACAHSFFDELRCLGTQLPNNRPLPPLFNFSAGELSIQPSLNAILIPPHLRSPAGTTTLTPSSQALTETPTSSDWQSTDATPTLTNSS
MAPKAPK2, sequence (P49137 whole entry): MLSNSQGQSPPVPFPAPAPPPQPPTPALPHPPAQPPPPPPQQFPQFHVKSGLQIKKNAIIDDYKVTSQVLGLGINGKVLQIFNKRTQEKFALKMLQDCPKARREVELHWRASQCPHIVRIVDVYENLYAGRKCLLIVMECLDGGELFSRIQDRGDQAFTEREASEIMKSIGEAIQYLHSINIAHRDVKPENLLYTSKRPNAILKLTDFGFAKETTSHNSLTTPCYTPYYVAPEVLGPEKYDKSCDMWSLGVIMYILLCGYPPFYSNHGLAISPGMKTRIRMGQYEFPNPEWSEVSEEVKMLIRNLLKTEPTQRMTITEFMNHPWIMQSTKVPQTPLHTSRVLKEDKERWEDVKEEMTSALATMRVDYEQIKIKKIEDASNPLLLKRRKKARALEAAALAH

SMILES | ΔTm at 20 µM (GSK-3α; [1]) | Tm difference vs DMSO, same protein (GSK-3α; [2]) | Tm (fitted melting curve) (GSK-3α; [2]) | Tm (GSK-3α; immunoblot) | Tm (GSK-3α) (GSK-3α; HL-60 cell extract, immunoblot) | ΔTm at 20 µM (GSK-3α; [3]) | ΔTm to DMSO in Cell Extract Compared to Living Cells (MAPKAPK2) (MAPKAPK2; 20 µM inhibitor) | Tm difference vs DMSO, same protein (MAPKAPK2; CETSA in cell extract (lysate)) | Tm (fitted melting curve) (MAPKAPK2; CETSA in cell extract (lysate), MAPKAPK2, in °C) | Tm (MAPKAPK2) (MAPKAPK2; HL-60 cell extract, 20 µM inhibitor, immunoblot) | ΔTm to DMSO (MAPKAPK2) (MAPKAPK2; HL-60 cell extract, 20 µM inhibitor, immunoblot, 20 µM) | ΔTm to DMSO in cell extract compared to living cells (MAPKAPK2; MAPKAPK2, cell extract minus living cells) | Tm (MAPKAPK2; [4]) | ΔTm to DMSO (MAPKAPK2; [4]) | EC50 (HN1L) | Hill slope (HN1L) (HN1L) | Tm (fitted melting temperature) (GSK-3α; CETSA in cell extract (lysate), GSK3a, melting curve fit, in °C (unit assumed)) | ΔTm at 20 µM (MAPKAPK2; 20 µM inhibitor, read-out: ΔTm to DMSO in Cell Extract Compared to Living Cells (MAPKAPK2)) | ΔTm at 20 µM (MAPKAPK2; HL-60 cell extract, 20 µM inhibitor, immunoblot, read-out: ΔTm to DMSO (MAPKAPK2)) | Hill slope (HN1L; TPP-CCR, living cells, HN1L)
Cn1c(NC[C@@H](N)Cc2ccccc2)nc(-c2ccncc2)c(-c2ccc3ccccc3c2)c1=O [AMG-548] | -0.05 °C | -0.76 | 48.26 | 48.26 °C | 48.26 °C | -0.76 °C | −2.22 °C | 2.96 | 51.06 | 51.06 °C | 3.0 °C and 2.96 °C | -2.22 °C | 51.06 °C | 2.96 °C | 389 nM | 0.39 | – | – | – | –
Cc1cnc(Nc2ccc(F)cc2Cl)nc1-c1c[nH]c(C(=O)N[C@H](CO)c2cccc(Cl)c2)c1 [ERK 11e] | 1.1 °C | 1.24 | 50.25 | 50.25 °C | 50.25 °C | 1.24 °C | – | 0.23 | – | – | – | – | – | – | 110 nM | 0.20 | 50.2547 | 0.25 °C | 0.23 °C | 0.20
